Data reported in patent US8293292B2, “Extract of Fraxinus excelsior seeds and therapeutic applications therefor” (Naturex, S.A., priority 2008, dated 2012).

How the values were obtained:
PPAR-alpha = target: T1, PPAR-alpha (Homo sapiens, UniProt Q07869); assay: PPAR-alpha activation in reporter cell lines; format: cell-based; settings: concentration of 10^−4 M
T1 sequence (Q07869 1-468): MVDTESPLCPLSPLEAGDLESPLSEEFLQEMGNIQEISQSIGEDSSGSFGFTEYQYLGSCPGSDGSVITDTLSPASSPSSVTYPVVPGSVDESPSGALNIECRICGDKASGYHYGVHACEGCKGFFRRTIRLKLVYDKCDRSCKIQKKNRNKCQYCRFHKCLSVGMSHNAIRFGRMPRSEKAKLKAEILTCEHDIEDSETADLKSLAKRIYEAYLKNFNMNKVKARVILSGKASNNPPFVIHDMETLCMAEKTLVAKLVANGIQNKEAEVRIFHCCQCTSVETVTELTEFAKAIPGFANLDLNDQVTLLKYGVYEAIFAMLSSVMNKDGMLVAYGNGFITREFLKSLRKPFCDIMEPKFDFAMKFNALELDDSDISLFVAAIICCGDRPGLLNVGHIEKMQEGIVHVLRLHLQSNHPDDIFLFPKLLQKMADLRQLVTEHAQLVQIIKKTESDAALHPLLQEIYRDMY
Excerpt: FIG. 6 illustrates relative PPARα activation potential (%) in reporter cell lines using concentrations ranging from 10^−5M-10^−9M for the selective synthetic PPARα activator WY14,643 as well as the isolated compounds at a concentration of 10^−4M and a 1:10 aqueous solution of FE seed extract, with compound label: FE19028 (Nuzhenide, 3), FE20015 (G13, 4), FE20031 (oleoside dimethyl ester, 6), FE21008 (excelside A, 1), and FE21023 (GI5, 5);
PPAR-alpha activity of excelside A (1), GI3 (4), and oleoside dimethyl ester (6). Five single compounds isolated from Fraxinus excelsior (FE) seed water extract were tested for PPAR-alpha activity. The synthetic and selective PPAR alpha activator WY14,643 served as positive control and DMSO which was used to dissolve these compounds as negative control in the assay.

3T3-L1 cells = assay: adipogenesis inhibition, glucose uptake of MDI-induced 3T3-L1 preadipocytes; format: cell-based; settings: 0.004%, 0.02%, 0.05%, 0.1%; glucose uptake ten days after differentiation induction
Excerpt: Inhibitory effect of GI5 (5) and nuzhenide (3) on undifferentiated 3T3-L1 cells. The major component of weight gain is deposition of adipose tissue in body through the adipogenesis process. Adipogenesis is characterized by increase in the size and number of fat cells. The secoiridoids, GI5 and nuzhenide isolated from F. excelsior, have shown significant and mild adipogenesis inhibitory activity, respectively, by blocking the pathway from undifferentiated 3T3-L1 cell to differentiated adipocyte to achieve an effect on bodyweight control and body fat loss. 3T3-L1 preadipocytes were induced to differentiate with methylisobutylxanthine, dexamethasone, and insulin (MDI) hormonal cocktail in the presence or absence of compounds. Ten days after differentiation induction, the treated cells were assayed for their respective glucose uptake activity, which is an indirect measurement of differentiation (adipogenesis) because preadipocytes are incapable of insulin-induced, glucose transport-4 (GLUT4)-mediated glucose uptake while fully differentiate adipocytes are capable of this uptake. Compounds, GI5 and nuzhenide, were used at four different concentrations: 0.004%, 0.02%, 0.05%, and 0.1%. Untreated (undifferentiated) cells were used as a negative control while insulin was used as a positive control. Methanol (MeOH), the solvent of the compounds, was also used as a control.

| PPAR-alpha activity (PPAR-alpha) | Structure (SMILES) | adipogenesis inhibitory activity (3T3-L1 cells) |
| --- | --- | --- |
| good activity | C/C=C1/[C@H](O[C@@H]2O[C@H](CO[C@@H]3O[C@H](CO)[C@@H](O)[C@H](O)[C@H]3O)[C@@H](O)[C@H](O)[C@H]2O)OC=C(C(=O)OC)[C@H]1CC(=O)OC [excelside A, (2S,3E,4S) 2H-Pyran-4-acetic acid-3-ethylidene-2-[(6-O-β-D-glucopyranosyl-β-D-glucopyranosyl)oxy]-3,4-dihydro-5-(methoxycarbonyl)methyl ester] | – |
| – | C/C=C1\C(CC(=O)OC[C@H]2O[C@@H](OCCc3ccc(O)cc3)[C@H](O)[C@@H](O)[C@@H]2O)C(C(=O)OC)=CO[C@H]1O[C@@H]1O[C@H](CO)[C@@H](O)[C@H](O)[C@H]1O (stereo partly drawn) [nuzhenide] | mild |
| good activity | C/C=C1\[C@H](O[C@@H]2O[C@H](CO)[C@@H](O)[C@H](O)[C@H]2O)OC=C(C(=O)OC)[C@H]1CC(=O)OC [oleoside dimethyl ester] | – |
